Measured values: US12128068B2, “Compositions and methods for dental mineralization” (The University of Melbourne, priority 2013, dated 2024)

Assay: Remineralization of enamel subsurface lesions (transverse microradiography and densitometric image analysis)
Design: species or system Human
Settings: 1% v/v sodium hypochlorite for 1 min at start of CPP-ACP remineralization, versus CPP-ACP alone
Procedure: Human tooth enamel demineralized subsurface lesions were prepared using the method of Reynolds, (1997). J Dent Res 76:1587-1595. The enamel surface was removed by polishing to remove all adsorbed protein. This removed around 50-100 μm of enamel to expose an uncoated, polished enamel surface for the study. […] A 1% w/v CPP-ACP pH 5.0 solution was prepared using Recaldent® [Kraft Foods], a commercial source of CPP-ACP that is prepared as per Example 1 at a pH of 5.0. All blocks were remineralized with the 1% CPP-ACP pH 5 solution for 7 days at 37° C. However, half were exposed to a 1% v/v sodium hypochlorite solution for 1 min at the start of the CPP-ACP remineralization period. In other words, the sodium hypochlorite and CPP-ACP were simultaneously exposed to the subsurface lesion. After remineralization the enamel blocks were embedded, sectioned and subjected to transverse microradiography and densitometric image analysis as previously described by Reynolds (1997) to determine percent mineral content gain (% Remineralization) shown in Table 3.

OCl [hypochlorite, sodium hypochlorite]
increase of the level of remineralization by the CPP-ACP solution: 31%
